According to DBAASP:
In brackets after ≈: the same amount, converted by molar mass.

What was measured:
Assay in all cases: ≥ marks a high value that may be exact or a test limit, other limits are often not marked, values filed in µg/mL are converted to µM
[1] = test system: Candida albicans
[2] = test system: Pseudomonas aeruginosa H103
[3] = test system: Salmonella enterica serovar Typhimurium
[4] = test system: Enterococcus faecalis ATCC 29212
[5] = test system: Escherichia coli UB1005
[6] = test system: Staphylococcus epidermidis
[7] = test system: Staphylococcus aureus ATCC 25923
[8] = test system: Micrococcus luteus ATCC 9341
[9] = test system: Streptococcus mutans
[10] = test system: Pseudomonas aeruginosa H1001

Structure (SMILES)	MIC [1] [µM]	MIC [2] [µM]	MIC [3] [µM]	MIC [4] [µM]	MIC [5] [µM]	MIC [6] [µM]	MIC [7] [µM]	MIC [8] [µM]	MIC [9] [µM]	MIC [10] [µM]
CC[C@H](C)[C@H](NC(=O)[C@H](Cc1c[nH]c2ccccc12)NC(=O)[C@H](Cc1c[nH]c2ccccc12)NC(=O)[C@H](CCCCN)NC(=O)[C@H](Cc1c[nH]c2ccccc12)NC(=O)[C@H](CCCN=C(N)N)NC(=O)[C@H](CCCN=C(N)N)NC(=O)[C@H](CCCCN)NC(=O)[C@@H](N)CC(C)C)C(=O)O [LKRRWKWWI]	19.1 (≈ 26.2 µg/mL)	19.1 (≈ 26.2 µg/mL)	9.6 (≈ 13.2 µg/mL)	9.6 (≈ 13.2 µg/mL)	2.4 (≈ 3.29 µg/mL)	1.2 (≈ 1.65 µg/mL)	2.4 (≈ 3.29 µg/mL)			
NCCCC[C@H](NC(=O)[C@@H](N)Cc1c[nH]c2ccccc12)C(=O)N[C@@H](Cc1c[nH]c2ccccc12)C(=O)N1CCC[C@H]1C(=O)N[C@@H](Cc1c[nH]c2ccccc12)C(=O)N[C@@H](Cc1c[nH]c2ccccc12)C(=O)N1CCC[C@H]1C(=O)N[C@@H](Cc1c[nH]c2ccccc12)C(=O)N[C@@H](CCCN=C(N)N)C(=O)N[C@@H](CCCN=C(N)N)C(N)=O [WKWPWWPWRR]								0.4 (≈ 0.633 µg/mL)		
NCCCC[C@H](NC(=O)[C@H](CCCN=C(N)N)NC(=O)[C@H](CCCN=C(N)N)NC(=O)[C@H](CCCCN)NC(=O)[C@H](Cc1c[nH]c2ccccc12)NC(=O)[C@H](CCCN=C(N)N)NC(=O)[C@@H](N)CCCN=C(N)N)C(=O)O [RRWKRRK]									≥ 461	
CC[C@H](C)[C@H](NC(=O)[C@H](Cc1ccccc1)NC(=O)[C@@H](N)Cc1ccccc1)C(=O)N[C@@H](Cc1ccc(O)cc1)C(=O)N[C@H](C(=O)N[C@@H](Cc1c[nH]c2ccccc12)C(=O)N[C@@H](CCCN=C(N)N)C(=O)N[C@@H](CCCN=C(N)N)C(=O)N[C@@H](CCCN=C(N)N)C(=O)O)C(C)C [FFIYVWRRR]	7.6 (≈ 10.2 µg/mL)	15.3 (≈ 20.5 µg/mL)	7.6 (≈ 10.2 µg/mL)	3.8 (≈ 5.1 µg/mL)	3.8 (≈ 5.1 µg/mL)	1 (≈ 1.34 µg/mL)	1.9 (≈ 2.55 µg/mL)			
CC[C@H](C)[C@H](NC(=O)[C@H](CCCN=C(N)N)NC(=O)[C@H](CCCN=C(N)N)NC(=O)[C@@H]1CCCN1C(=O)[C@H](Cc1c[nH]c2ccccc12)NC(=O)[C@H](CCCN=C(N)N)NC(=O)[C@@H]1CCCN1C(=O)[C@H](CCCN=C(N)N)NC(=O)[C@@H]1CCCN1C(=O)[C@H](CC(C)C)NC(=O)[C@H](Cc1ccc(O)cc1)NC(=O)[C@@H]1CCCN1C(=O)[C@@H]1CCCN1C(=O)[C@H](CCCCN)NC(=O)[C@H](CC(=O)O)NC(=O)[C@@H](N)C(C)C)C(=O)N[C@@H](Cc1ccc(O)cc1)C(=O)N[C@@H](CC(N)=O)C(=O)N[C@@H](CCCN=C(N)N)C(=O)NCC(=O)O [VDKPPYLPRPRWPRRIYNRG]										0.0591 (≈ 0.15 µg/mL)
CC(C)C[C@H](NC(=O)[C@H](Cc1ccccc1)NC(=O)[C@H](CCCCN)NC(=O)[C@H](Cc1c[nH]c2ccccc12)NC(=O)[C@H](Cc1c[nH]c2ccccc12)NC(=O)[C@H](CCCN=C(N)N)NC(=O)[C@H](CCCCN)NC(=O)[C@H](CC(C)C)NC(=O)[C@@H](N)CCCN=C(N)N)C(=O)O [RLKRWWKFL]	9.8 (≈ 13.1 µg/mL)	9.8 (≈ 13.1 µg/mL)	4.9 (≈ 6.53 µg/mL)	9.8 (≈ 13.1 µg/mL)	1.2 (≈ 1.6 µg/mL)	1.2 (≈ 1.6 µg/mL)	2.4 (≈ 3.2 µg/mL)			
